Data published in patent publication US7629315B2, “Compositions for blocking the inhibitory effect of human CRP on human leptin” (University of Pittsburgh of the Commonwealth System of …, priority 2005, dated 2009).

B1: mouse SAP: mouse pentraxin-like serum amyloid P component structurally similar to CRP (protein)
chain: QTDLKRKVFVFPRESETDHVKLIPHLEKPLQNFTLCFRTYSDLSRSQSLFSYSVKGRDNELLIYKEKVGEYSLYIGQSKVTVRGMEEYLSPVHLCTTWESSSGIVEFWVNGKPWVKKSLQREYTVKAPPSIVLGQEQDNYGGGFQRSQSFVGEFSDLYMWDYVLTPQDILFVYRDSPVNPNILNWQALNYEINGYVVIRPRVWD

How the values were obtained:
[1] = target: T1, long-form human leptin receptor, OB-Rb (Homo sapiens, UniProt P48357); experiment: 125I-leptin binding to HEK293 cells stably transfected with OB-Rb; details: HEK293 cell line stably transfected with OB-Rb; read-out: Kd for leptin and its receptors
T1 construct: expressed in transfected cells
T1 sequence (P48357 22-1165): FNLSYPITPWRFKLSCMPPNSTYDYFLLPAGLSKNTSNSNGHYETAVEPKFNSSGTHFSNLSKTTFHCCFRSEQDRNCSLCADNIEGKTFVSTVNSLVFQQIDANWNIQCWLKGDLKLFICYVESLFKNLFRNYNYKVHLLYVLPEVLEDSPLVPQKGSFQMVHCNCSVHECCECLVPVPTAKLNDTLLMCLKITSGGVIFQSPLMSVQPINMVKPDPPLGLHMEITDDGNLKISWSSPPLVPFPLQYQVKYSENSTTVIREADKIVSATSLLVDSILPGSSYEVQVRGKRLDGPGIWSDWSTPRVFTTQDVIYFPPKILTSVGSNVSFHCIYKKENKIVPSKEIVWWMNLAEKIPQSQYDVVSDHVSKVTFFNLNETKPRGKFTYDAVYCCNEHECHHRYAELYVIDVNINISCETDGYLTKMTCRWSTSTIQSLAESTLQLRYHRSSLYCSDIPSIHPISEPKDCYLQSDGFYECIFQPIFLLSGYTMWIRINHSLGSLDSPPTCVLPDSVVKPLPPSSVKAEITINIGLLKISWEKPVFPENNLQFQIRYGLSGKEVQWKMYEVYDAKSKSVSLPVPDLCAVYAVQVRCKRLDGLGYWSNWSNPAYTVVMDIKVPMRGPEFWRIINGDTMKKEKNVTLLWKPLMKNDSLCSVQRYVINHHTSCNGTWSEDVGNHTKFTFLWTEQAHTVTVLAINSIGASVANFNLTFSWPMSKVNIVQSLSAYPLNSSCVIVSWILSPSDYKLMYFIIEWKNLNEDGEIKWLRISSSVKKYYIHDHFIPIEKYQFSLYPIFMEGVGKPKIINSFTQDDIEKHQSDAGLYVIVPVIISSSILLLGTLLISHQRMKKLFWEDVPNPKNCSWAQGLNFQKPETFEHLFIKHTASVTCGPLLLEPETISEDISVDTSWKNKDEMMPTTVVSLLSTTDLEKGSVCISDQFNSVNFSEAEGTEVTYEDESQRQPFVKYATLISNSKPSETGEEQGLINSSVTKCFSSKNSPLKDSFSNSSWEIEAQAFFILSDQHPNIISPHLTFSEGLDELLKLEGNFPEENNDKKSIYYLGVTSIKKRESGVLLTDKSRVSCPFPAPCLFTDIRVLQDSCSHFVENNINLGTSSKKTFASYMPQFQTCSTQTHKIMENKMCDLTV
Protocol: 4. Measurement of IC50 for human CRP against human leptin: Human leptin was iodinated with Na^125I using the lodogen method. Briefly, 15 μg of human leptin in 100 mM Phosphate buffer pH 7.5 were incubated with 1 mCi of carrier-free Na^125I (2200 Ci/mmol) in a glass tube containing 50 μg Iodogen. After 10 minute incubation at room temperature, the reaction was stopped with 100 μl 0.1% trifluoroacetic acid (TFA). The reaction mixture was immediately purified by reverse-phase HPLC. The separation employed a 5 minute isocratic step at 20% eluant B in A, followed by two consecutive 30 minute linear gradients from 20 to 50%, then from 50 to 60% eluant B in A (where eluant A is water containing 0.1% TFA and eluant B is acetonitrile containing 0.1% TFA) at a flow rate of 1.5 ml/min. The ^125I-labeled leptin (˜2 ng/ml) was pre-incubated with various concentrations of human CRP in 1 ml of μ-MEM for 30 minute before added to the OBR-expressing HEK293 cells. The incubation would last for 3 hours at 4° C. before the media was aspirated and the cells were dissolved in 0.1N NaOH for scintillation counting.
To examine if human CRP interferes with the binding of human leptin to its receptors, we used a HEK293 cell line stably transfected with the long-form human leptin receptor, OB-Rb. The characterization of this cell line has been reported in earlier studies. M. Friedman-Einat et al., 2003, Regul. Pept. […]

ob/ob mice = experiment: Infusion of human CRP and/or human leptin by osmotic pumps into ob/ob mice; format: in vivo, mouse
Protocol: 3(a). In vivo assessment of CRP functions: The micro-osmotic pumps (#1007D, DURECT, Cupertino, Calif.) were subcutaneously imbedded in the ob/ob or wild-type mice according to the instructions of the manufacturer. The osmotic pumps were pre-filled with saline, CRP, leptin or leptin plus CRP. Food-intake (24-h), body weight, and body temperature were monitored daily post-surgery. Blood glucose concentrations were measured from the tail-vein blood samples right before and at the end of infusion with a Precision Plus glucose meter (Medisense, Abbot Park, Ill.).
3(b) Assessment of serum leptin insulin, and CRP: Human- and mouse-leptin concentrations were measured with the ELISA kit from CHEMICON (Temecular, Calif.) and R&D Systems (Minneapolis, Minn.), respectively, according to the instructions of the manufacturer. Serum mouse insulin concentrations were determined with an ELISA assay (LINCO Research, St. Charles, Mo.). Human CRP concentrations were also evaluated with an ELISA kit (Alpha Diagnostics International, San Antonio, Tex.).
3(c) Measurement of serum- and tissue-triglycerides: Serum- and tissue-triglycerides were determined with the protocols described in J. N. Huan et al., 2003, J. Biol. Chem. 278, 45638. […]

[2] = test system: human primary hepatocytes; experiment: Leptin-stimulated CRP expression in human primary hepatocytes in vitro; format: cell-based
lean and healthy humans = experiment: Injection of leptin in lean and healthy humans, plasma CRP; format: in vivo, human
mice = experiment: Continuous infusion of leptin in mice, plasma SAP; format: in vivo, mouse; details: elevation of serum leptin through continuous infusion in mice
leptin = experiment: Immunoprecipitation of mouse SAP with leptin; format: binding
[3] = human leptin alone, 6-day continuous infusion

Molecule | Kd [1] [nM] | body weight (ob/ob mice; [3]) | food-intake (ob/ob mice; [3]) | blood glucose (ob/ob mice; leptin alone) | hepatic triglyceride (ob/ob mice; leptin alone) | plasma insulin (ob/ob mice; leptin alone) | serum triglyceride (ob/ob mice; leptin alone) | expression of CRP [2] | plasma CRP concentrations (lean and healthy humans) | plasma concentrations of SAP (mice) | binding of leptin (immunoprecipitation) (leptin)
human leptin: recombinant human leptin, adipocyte hormone (SEQ ID NO:4) | 1 | produced the expected reduction in food-intake and body weight | produced the expected reduction in food-intake and body weight | lowering | lowering | lowering | lowering | stimulates expression of CRP | leads to elevation of plasma CRP concentrations | increased plasma concentrations of SAP in mice | 
B1 |  |  |  |  |  |  |  |  |  |  | leptin binds to mouse SAP
